# Patent US11246896B2, “Tumor-specific adenovirus vectors and therapeutic uses” (priority 2015, dated 2022)
# System: RIN, MIN, β-TC1 (INSM1+ insulinomas)
# Assay: Cell survival assay (MTS), INSM1-positive insulinoma cells
# Assay type: cell-based, rat, mouse
# Conditions: 200 μM GCV, no virus, RTC-1 cells
# Method: FIGS. 13A-13D illustrate that the oncolytic virus in combination with Ad-INSM1p-HSV-tk increased efficacy of tumor cell killing. An MTS colorimetric assay was conducted to measure the cell survival with 3 insulinoma cell lines: RIN, MIN, β-TC1 (INSM1^+ insulinomas), and Panc-1 (INSM1^− pancreatic epithelioid carcinoma).
# FIG. 13D is a graph illustrating cells treated with a combination of Ad-IMSM1p-HSV-tk and Ad-INSM1p-E1A-HSV-tk viruses. Cells were first treated with virus ranging from 0-100 MOI. […] Cell survival was measured by MTS colorimetric analysis at 490 nm. (n=6). […]
# FIG. 14D is a graph illustrating cells treated with a combination of Ad-IMSM1p-HSV-tk and Ad-INSM1p-E1A-HSV-tk viruses. […] Cell survival was measured by MTS colorimetric analysis at 490 nm. […]
# Cell survival assay. […] Afterwards, cell survival was assessed using […] 96® AQueous One Solution Cell Proliferation Assay (Promega, cat. no. G3582) and read at 490 nm on a Bio-Tek Synergy-HT Microplate Reader. Results were plotted as relative absorbance (relative to control sample with no virus) against increasing viral MOI. Samples were conducted in six wells each and statistical significance was determined using the students T-test with a threshold of p<0.05.
# For a second experiment, the same viral constructs were used to infect cancer cells at a constant 50 MOI. […] After the treatment period, cell survival was assessed using […] […]
smiles,measurement,value
"Nc1nc(O)c2ncn(COC(CO)CO)c2n1 [GCV, 2-amino-9-{[(1,3-dihydroxypropan-2-yl)oxy]methyl}-6,9-dihydro-3H-purin-6-one]",cell survival with GCV in the absence of adenovirus,decrease in survival
